Assays:
[1] = target: T1, Human recombinant PDE2A (hPDE2A) (Homo sapiens, UniProt O00408); assay: In vitro assay PDE2A (SPA, 3H-cGMP); assay type: biochemical; conditions: read-out: pIC50 PDE2 (converted)
T1 construct: made in house; host or cells: Sf9 insect cells (baculovirus)
Description: Tested compounds were dissolved and diluted in 100% DMSO to a concentration 100 fold of the final concentration in the assay. Compound dilutions (0.4 μl) were added in 384 well plates to 20 μl of incubation buffer (50 mM Tris pH 7.8, 8.3 mM MgCl2, 1.7 mM EGTA). 10 μl of hPDE2A enzyme in incubation buffer was added and the reaction was started by addition of 10 μl substrate to a final concentration of 10 μM cGMP and 0.01 μCi ^3H-cGMP. The reaction was incubated for 45 minutes at room temperature. […] After sedimentation of the beads during 30 minutes the radioactivity was measured in a Perkin Elmer Topcount scintillation counter and results were expressed as cpm. For blanc values the enzyme was omitted from the reaction and replaced by incubation buffer. Control values were obtained by addition of a final concentration of 1% DMSO instead of compound.

[2] = system: Apomorphine-induced agitation; assay: Reversal of Apomorphine-induced Agitation in Rats (APO); assay type: in vivo, rat; conditions: oral route; for PO Max effect (cumulative agitation score over 60 min): apomorphine 1.0 mg/kg i.v.; for PO LAD (lowest active dose): lowest dose at which ≥67% tested animals respond
Description: Apomorphine (1.0 mg/kg, i.v.)-induced agitation was scored every 5 min over the first hour after injection of apomorphine. The score system was: (3) pronounced, (2) moderate, (1) slight, and (0) absent. […] For the present purpose, the cumulative agitation score over the whole 60-min observation period was used as a measure to describe the maximum effect (Max effect).

[3] = target: T2, Rat recombinant PDE10A (rPDE10A2) (Rattus norvegicus, UniProt Q9QYJ6); assay: In vitro assay PDE10A (SPA, 3H-cAMP); assay type: biochemical; conditions: read-out: PIC50 PDE10 (converted)
T2 construct: made in house; host or cells: Sf9 insect cells (baculovirus)
T2 sequence (Q9QYJ6 1-794): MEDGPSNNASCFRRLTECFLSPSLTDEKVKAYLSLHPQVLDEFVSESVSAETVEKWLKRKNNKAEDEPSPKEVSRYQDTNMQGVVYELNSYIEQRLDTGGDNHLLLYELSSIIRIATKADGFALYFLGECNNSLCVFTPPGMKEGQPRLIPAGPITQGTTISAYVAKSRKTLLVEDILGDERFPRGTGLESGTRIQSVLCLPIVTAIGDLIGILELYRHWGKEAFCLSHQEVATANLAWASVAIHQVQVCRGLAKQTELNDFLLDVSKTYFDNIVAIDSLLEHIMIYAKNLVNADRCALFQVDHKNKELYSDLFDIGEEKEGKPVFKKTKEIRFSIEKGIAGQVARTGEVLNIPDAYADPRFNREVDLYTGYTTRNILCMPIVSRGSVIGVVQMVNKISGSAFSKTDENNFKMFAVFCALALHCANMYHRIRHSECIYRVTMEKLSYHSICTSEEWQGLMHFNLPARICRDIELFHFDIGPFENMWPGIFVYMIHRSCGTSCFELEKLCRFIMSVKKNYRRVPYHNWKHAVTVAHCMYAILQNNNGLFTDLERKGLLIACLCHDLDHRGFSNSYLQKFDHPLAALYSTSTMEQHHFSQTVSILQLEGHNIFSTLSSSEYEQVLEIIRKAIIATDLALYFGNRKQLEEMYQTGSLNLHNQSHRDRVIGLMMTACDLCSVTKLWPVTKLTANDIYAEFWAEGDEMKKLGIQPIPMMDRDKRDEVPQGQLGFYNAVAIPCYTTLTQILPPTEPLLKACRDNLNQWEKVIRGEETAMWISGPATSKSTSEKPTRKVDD

T1 sequence (O00408 whole entry): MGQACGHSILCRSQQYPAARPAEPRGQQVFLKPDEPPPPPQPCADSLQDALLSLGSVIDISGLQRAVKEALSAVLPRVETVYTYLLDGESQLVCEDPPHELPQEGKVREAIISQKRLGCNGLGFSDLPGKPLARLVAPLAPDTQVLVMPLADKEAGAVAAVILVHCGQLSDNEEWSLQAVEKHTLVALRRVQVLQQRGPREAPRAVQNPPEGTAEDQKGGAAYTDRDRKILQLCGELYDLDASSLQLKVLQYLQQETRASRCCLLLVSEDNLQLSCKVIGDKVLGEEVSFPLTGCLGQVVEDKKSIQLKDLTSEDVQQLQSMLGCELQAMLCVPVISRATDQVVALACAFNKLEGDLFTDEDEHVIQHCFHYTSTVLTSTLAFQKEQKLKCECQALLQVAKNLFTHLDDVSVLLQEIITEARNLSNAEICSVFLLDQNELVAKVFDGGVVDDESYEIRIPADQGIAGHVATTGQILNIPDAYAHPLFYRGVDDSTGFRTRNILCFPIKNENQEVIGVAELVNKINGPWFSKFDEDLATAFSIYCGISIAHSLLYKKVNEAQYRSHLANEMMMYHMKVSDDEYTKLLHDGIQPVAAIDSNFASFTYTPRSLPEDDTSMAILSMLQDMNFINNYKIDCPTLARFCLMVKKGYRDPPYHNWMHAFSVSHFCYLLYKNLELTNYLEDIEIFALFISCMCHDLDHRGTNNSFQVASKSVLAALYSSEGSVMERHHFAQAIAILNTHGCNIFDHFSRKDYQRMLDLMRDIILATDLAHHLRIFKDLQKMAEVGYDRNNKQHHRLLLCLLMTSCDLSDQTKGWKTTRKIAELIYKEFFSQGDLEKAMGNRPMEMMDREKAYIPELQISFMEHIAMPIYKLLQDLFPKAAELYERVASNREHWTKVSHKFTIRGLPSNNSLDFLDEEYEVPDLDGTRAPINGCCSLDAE

Row | Structure (SMILES) | IC50 [1] | IC50 [3] | PO Dose at Max Effect [2] | PO Max effect (cumulative agitation score over 60 min) [2] | PO LAD (lowest active dose) [2]
1 | Cc1nc2ccc(C(=O)NCc3ccccn3)cc2n2c(-c3ccc(Cl)cc3Cl)nnc12 [Compound B-108] | 20.4 nM | 36.3 nM | 10 mg/kg | 19 | > 10 mg/kg
2 | Cc1nc2cc(OCCc3ccccn3)ccc2n2c(-c3ccccc3Cl)nnc12 [Compound B-139] | 34.7 nM | 63.1 nM | 10 mg/kg | 22 | > 10 mg/kg
3 | Cc1nc2ccc(OC(C)(F)F)cc2n2c(-c3ccccc3Cl)nnc12 [Compound B-25, 1-(2-Chlorophenyl)-8-(1,1-difluoroethoxy)-4-methyl[1,2,4]triazolo[4,3-a]-quinoxaline] | 3.89 nM | 15.5 nM | 10 mg/kg | 19 | 10 mg/kg
4 | COc1ccccc1-c1nnc2c(C)nc3ccc(C(=O)NCc4ccccn4)cc3n12 [Compound B-53] | 3.09 nM | 37.2 nM | 10 mg/kg | 24 | > 10 mg/kg
5 | CCCCOc1ccc(Cl)c(-c2nnc3c(C)nc4ccc(CN5CCN(C)CC5)cc4n23)c1 [Compound B-160] | 60.3 nM | 2450 nM | – | – | –
6 | Cc1nc2ccc(CN3CCC(O)CC3)cc2n2c(-c3cc(OC(C)C)ccc3Cl)nnc12 [Compound B-136] | 31.6 nM | 1260 nM | – | – | –
7 | CCCCOc1ccc(Cl)c(-c2nnc3c(C)nc4ccc(CN5CCC(F)CC5)cc4n23)c1 [Compound B-132] | 29.5 nM | 1780 nM | – | – | –
8 | Cc1nc2ccc(C(=O)OCc3ccccc3)cc2n2c(-c3ccccc3)nnc12 [Compound B-8, Benzyl 4-methyl-1-phenyl[1,2,4]triazolo[4,3-a]quinoxaline-8-carboxylate] | 20.4 nM | 380 nM | – | – | –
9 | CCCCOc1cncc(-c2nnc3c(C)nc4ccc(CNCC5CC5)cc4n23)c1 [Compound B-156] | 61.7 nM | 7940 nM | – | – | –
10 | Cc1cncc(-c2nnc3c(C)nc4ccc(Br)cc4n23)c1 [Compound B-154] | 52.5 nM | 380 nM | – | – | –
11 | CCCCOc1ccc(Cl)c(-c2nnc3c(C)nc4ccc(CN5CCC(O)CC5)cc4n23)c1 [Compound B-105] | 19.1 nM | 1450 nM | – | – | –
12 | CCCCOc1ccc(Cl)c(-c2nnc3c(C)nc4ccc(CNCC5CC5)cc4n23)c1 [Compound B-152] | 50.1 nM | 3890 nM | – | – | –
13 | Cc1nc2ccc(Br)cc2n2c(-c3cc(OC(C)C)ccc3Cl)nnc12 [Compound B-100] | 14.8 nM | 1230 nM | – | – | –
14 | Cc1nc2ccc(C(N3CCOCC3)C(F)(F)F)cc2n2c(-c3ccccc3Cl)nnc12 (stereo not shown) [Compound B-22, 1-(2-Chlorophenyl)-4-methyl-8-(2,2,2-trifluoro-1-morpholin-4-ylethyl) [1,2,4]triazolo[4,3-a]quinoxaline] | 7.76 nM | 89.1 nM | – | – | –
15 | Cc1nc2ccc(Br)cc2n2c(-c3ccccc3OC(F)(F)F)nnc12 [Compound B-159] | 60.3 nM | 347 nM | – | – | –
16 | Cc1nc2ccc(C(=O)OCCCc3ccccc3)cc2n2c(-c3ccccc3)nnc12 [Compound B-158] | 60.3 nM | 603 nM | – | – | –
17 | Cc1nc2ccc(Oc3ccncc3)cc2n2c(-c3ccccc3Cl)nnc12 [Compound B-30, 1-(2-Chlorophenyl)-4-methyl-8-(pyridin-4-yloxy)[1,2,4]triazolo[4,3-a]quinoxaline] | 5.75 nM | 24.5 nM | – | – | –

Row | Structure (SMILES) | IC50 [1] | IC50 [3] | PO Dose at Max Effect [2] | PO Max effect (cumulative agitation score over 60 min) [2] | PO LAD (lowest active dose) [2]
18 | CCCOc1ccc(Cl)c(-c2nnc3c(C)nc4ccc(OCCc5cccnc5)cc4n23)c1 [Compound B-116] | 24.5 nM | 513 nM | – | – | –
19 | CCCOc1ccc(Cl)c(-c2nnc3c(C)nc4ccc(N5CCN(C)CC5)cc4n23)c1 [Compound B-117] | 25.1 nM | 912 nM | – | – | –
20 | Cc1nc2ccc(CN3CCC(F)CC3)cc2n2c(-c3cc(OC(C)C)ccc3Cl)nnc12 [Compound B-134] | 30.2 nM | 1100 nM | – | – | –
21 | CCCCOc1cncc(-c2nnc3c(C)nc4ccc(Br)cc4n23)c1 [Compound B-7, 8-Bromo-1-(5-butoxypyridin-3-yl)-4-methyl[1,2,4]triazolo[4,3-a]quinoxaline] | 18.6 nM | 3390 nM | – | – | –
22 | COC1CCCN(Cc2ccc3nc(C)c4nnc(-c5ccccc5Cl)n4c3c2)C1 (stereo not shown) [Compound B-86] | 11 nM | 38 nM | – | – | –
23 | COc1ccc(Cl)c(-c2nnc3c(C)nc4ccc(Br)cc4n23)c1 [Compound B-69] | 6.17 nM | 77.6 nM | – | – | –
24 | COc1cncc(-c2nnc3c(C)nc4ccc(Br)cc4n23)c1 [Compound B-124] | 27.5 nM | 355 nM | – | – | –
25 | CCC(=O)Nc1ccc2nc(C)c3nnc(-c4ccccc4Cl)n3c2c1 [Compound B-28, N-[1-(2-Chlorophenyl)-4-methyl[1,2,4]triazolo[4,3-a]quinoxalin-8-yl]propanamide] | 2.29 nM | 13.2 nM | – | – | –
26 | CCCCOc1ccc(Cl)c(-c2nnc3c(C)nc4ccc(OCCc5cccnc5)cc4n23)c1 [Compound B-130] | 28.8 nM | 977 nM | – | – | –
27 | Cc1cncc(-c2nnc3c(C)nc4ccc(C(F)(F)F)cc4n23)c1 [Compound B-162] | 67.6 nM | 871 nM | – | – | –
28 | CCNC(c1ccc2nc(C)c3nnc(-c4ccccc4Cl)n3c2c1)C(F)(F)F (stereo not shown) [Compound B-64] | 5.75 nM | 30.2 nM | – | – | –
29 | CCCOc1ccc(Cl)c(-c2nnc3c(C)nc4ccc(CN5CCC(F)CC5)cc4n23)c1 [Compound B-135] | 30.2 nM | 589 nM | – | – | –
30 | CCNC(=O)c1ccc2nc(C)c3nnc(-c4cccnc4OC)n3c2c1 [Compound B-123] | 27.5 nM | 417 nM | – | – | –
31 | CCCOc1ccc(Cl)c(-c2nnc3c(C)nc4ccc(CNc5cccnc5)cc4n23)c1 [Compound B-138] | 33.9 nM | 708 nM | – | – | –
32 | Cc1nc2ccc(CN3CCC(N(C)C)CC3)cc2n2c(-c3ccccc3Cl)nnc12 [Compound B-157] | 57.5 nM | 282 nM | – | – | –
33 | COCCC1CN(Cc2ccc3nc(C)c4nnc(-c5ccccc5Cl)n4c3c2)CCO1 (stereo not shown) [Compound B-106] | 19.5 nM | 89.1 nM | – | – | –

More lines, main results first:

Row | IC50 [1] | IC50 [3] | Structure (SMILES) | PO Dose at Max Effect [2] | PO Max effect (cumulative agitation score over 60 min) [2] | PO LAD (lowest active dose) [2]
34 | 302 nM | > 10000 nM | CCCOc1cncc(-c2nnc3c(C)nc4ccc(CNC5CCC5)cc4n23)c1 [Compound B-209] | – | – | –
35 | 355 nM | 6170 nM | CCOCc1cncc(-c2nnc3c(C)nc4ccc(CN(C)C)cc4n23)c1 [Compound B-212] | – | – | –
36 | 102 nM | 2820 nM | CCNC(=O)c1ccc2c(c1)nc(C)c1nnc(-c3cccnc3C)n12 [Compound B-169] | – | – | –
37 | 240 nM | > 10000 nM | Cc1nc2ccc(CNC3CCC3)cc2n2c(-c3cncc(OCC4CC4)c3)nnc12 [Compound B-207] | – | – | –
38 | 42.7 nM | 3550 nM | Cc1nc2ccc(CN3CCOCC3)cc2n2c(-c3cncc(OCCF)c3)nnc12 [Compound B-195] | – | – | –
39 | 64.6 nM | 8710 nM | Cc1nc2ccc(CN3CCOCC3)cc2n2c(-c3cncc(OCCCF)c3)nnc12 [Compound B-196] | – | – | –
40 | 102 nM | 3630 nM | Cc1nc2ccc(CN3CCN(C)CC3)cc2n2c(-c3cc(OC(C)C)ccc3Cl)nnc12 [Compound B-170] | – | – | –
41 | 240 nM | 4170 nM | CCNC(=O)c1ccc2nc(C)c3nnc(-c4ccc(C)nc4)n3c2c1 [Compound B-182] | – | – | –
42 | 95.5 nM | 282 nM | Cc1nc2ccc(Br)cc2n2c(-c3cccc(Cl)c3Cl)nnc12 [Compound B-166] | – | – | –
43 | 95.5 nM | 5130 nM | CCCCOc1cncc(-c2nnc3c(C)nc4ccc(CN5CCC(F)CC5)cc4n23)c1 [Compound B-201] | – | – | –
44 | 275 nM | > 10000 nM | Cc1nc2ccc(CN3CCCC3)cc2n2c(-c3cncc(OCC4CC4)c3)nnc12 [Compound B-208] | – | – | –
45 | 372 nM | > 10000 nM | CCOCc1cncc(-c2nnc3c(C)nc4ccc(CNC5CCC5)cc4n23)c1 [Compound B-213] | – | – | –
46 | 117 nM | 741 nM | Cc1nc2ccc(Br)cc2n2c(-c3cncc(Cl)c3)nnc12 [Compound B-171] | – | – | –
47 | 135 nM | 977 nM | COc1ccc2nc(C)c3nnc(-c4cnccc4C)n3c2c1 [Compound B-173] | – | – | –
48 | 81.3 nM | 501 nM | COc1cncc(-c2nnc3c(C)nc4ccc(OC(F)(F)F)cc4n23)c1 [Compound B-165] | – | – | –
49 | 69.2 nM | 2510 nM | COc1ccc2nc(C)c3nnc(-c4ccccc4OC(F)(F)F)n3c2c1 [Compound B-164] | – | – | –
50 | 132 nM | 8130 nM | COCCCc1cncc(-c2nnc3c(C)nc4ccc(CN5CCOCC5)cc4n23)c1 [Compound B-204] | – | – | –
